For assay [1], the target named is human GABAA α2β2γ1 receptor (Homo sapiens (Human), UniProt P47869+Q8N1C3). Description: Radioligand binding assay for γ1-containing GABAA subtypes, [3H]RO7239181 competition (α2β2γ1).
In assay [2] the target is human GABAA α1β3γ2 receptor (Homo sapiens (Human), UniProt P14867+P18507). Description: Radioligand binding assay for γ2-containing GABAA subtypes, [3H]Flumazenil competition (α1β3γ2). The following applies: for γ2/γ1 Selectivity Ratio: Ki α1β3γ2 (nM)/Ki α2β2γ1 (nM); for LogSel: Log[Ki α1β3γ2 (nM)/Ki α2β2γ1 (nM)].
Assay [3] deals with α2β2γ1 GABAA receptor subtype (Homo sapiens (Human), UniProt P47869+Q8N1C3). The experiment in a line: Two-electrode voltage clamp electrophysiology in Xenopus oocytes expressing GABAA receptors (modulation of GABA EC20 current). The assay is classed as cell-based. The note with it: for Efficacy (GABA)%: % modulation of GABA EC20 = 100*(Fold increase-1), α2β2γ1 oocytes, compound at approx. 30-fold Ki; for Fold increase h-GABA-A α2β2γ1 oocyte @ 30-fold Ki: Xenopus oocytes expressing α2β2γ1, compound at approx. 30-fold its Ki α2β2γ1, GABA EC20 current. A digest of the protocol:
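Two-electrode voltage clamp at −80 mV, room temperature, 3-5 days after mRNA injection into oocytes. GABA applied at EC20 for 1.5 min, twice, with compound during second application; at least 3 oocytes per concentration. Efficacy = extremum of point-by-point current ratio, expressed as 100×(fold increase−1).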

Assay [4] has as its target human GABAA α5β2γ1 receptor (Homo sapiens (Human), UniProt P31644+Q8N1C3). Description: Radioligand binding assay for γ1-containing GABAA subtypes, [3H]RO7239181 competition (α5β2γ1).
Where [5] appears, read: Ki h-GABAA α2β2γ1, [3H]RO7239181 competition binding, human GABAA α2β2γ1.
The mark [6] stands for this setting: Ki h-GABAA α2β2γ1, displacement of [3H]RO7239181, membranes of HEK293F cells expressing human receptors, means of two determinations.

For orientation: Ki means a measure of affinity in units of concentration, obtained from inhibition or displacement. Low values mean tighter binding, high ones weaker binding. For the compound `C[C@@H]1N=C(c2c(F)cccc2F)c2c(ccc(C(F)(F)F)c2Cl)-n2ncnc21` [Example 22, (4S)-7-chloro-6-(2,6-difluorophenyl)-4-methyl-8-(trifluoromethyl)-4H-[1,2,4]triazolo[1,5-a][1,4]benzodiazepine], the Ki in assay [1] (setting [5]) worked out at 11.4 nM. The compound also returned a Ki in assay [1] (setting [6]) of 11.4 nM. Further, in assay [2], the Ki is 1560 nM, the “γ2/γ1 Selectivity Ratio” value is recorded as 136.7 and the LogSel is 2.14. In assay [3], the “Efficacy (GABA)%” value is 78% and the “Fold increase h-GABA-A α2β2γ1 oocyte @ 30-fold Ki” value is given as 1.78. Besides, the Ki in assay [4] turned out to be 1.02 nM.

As for `O=C(c1nc2n(n1)-c1ccc(Cl)c(Cl)c1C(c1c(F)cccc1F)=NC2)N1CC(O)C1` [Example 24, [7,8-dichloro-6-(2,6-difluorophenyl)-4H-[1,2,4]triazolo[1,5-a][1,4]benzodiazepin-2-yl]-(3-hydroxyazetidin-1-yl)methanone], the Ki in assay [1] (setting [5]) worked out at 3.1 nM; in assay [1] (setting [6]) it was 3.14 nM; in assay [2] it was 273 nM; in assay [4] it was 0.45 nM. Moreover, the “γ2/γ1 Selectivity Ratio” value in assay [2] was 86.7. Moreover, the LogSel in assay [2] stood at 1.94. The “Efficacy (GABA)%” value in assay [3] stood at 88%. Moreover, the “Fold increase h-GABA-A α2β2γ1 oocyte @ 30-fold Ki” value in assay [3] is 1.88.

In assay [1] (setting [5]), `C[C@@H]1N=C(c2c(F)cccc2F)c2c(ccc(Cl)c2Cl)-n2nc(C(=O)N3CC(O)C3)nc21` [Example 25, [(4S)-7,8-dichloro-6-(2,6-difluorophenyl)-4-methyl-4H-[1,2,4]triazolo[1,5-a][1,4]benzodiazepin-2-yl]-(3-hydroxyazetidin-1-yl)methanone] returned a Ki of 4 nM. This compound displayed a Ki in assay [1] (setting [6]) of 3.98 nM. Further, in assay [2], the Ki worked out at 688 nM, the “γ2/γ1 Selectivity Ratio” value is 172.8 and the LogSel is reported as 2.24. Besides, in assay [3], the “Efficacy (GABA)%” value is recorded as 63% and the “Fold increase h-GABA-A α2β2γ1 oocyte @ 30-fold Ki” value amounted to 1.63. The compound also had a Ki in assay [4] of 1.44 nM.

`COCc1nc2n(n1)-c1ccc(Cl)c(Cl)c1C(c1c(F)cccc1F)=N[C@H]2C` [Example 27, (4S)-7,8-dichloro-6-(2,6-difluorophenyl)-2-(methoxymethyl)-4-methyl-4H-[1,2,4]triazolo[1,5-a][1,4]benzodiazepine] registered a Ki in assay [1] (setting [5]) of 11.4 nM. Besides, in assay [1] (setting [6]), the Ki came to 11.4 nM. Also, in assay [2], the affinity corresponds to a Ki of 707 nM, the “γ2/γ1 Selectivity Ratio” value was 61.8 and the LogSel came out at 1.79. In addition, in assay [3], the “Efficacy (GABA)%” value amounted to 69% and the “Fold increase h-GABA-A α2β2γ1 oocyte @ 30-fold Ki” value is reported as 1.69. Moreover, the affinity in assay [4], expressed as Ki, was 1.08 nM.

In assay [1] (setting [5]), `COCCNC(=O)c1nc2n(n1)-c1ccc(Cl)c(Cl)c1C(c1c(F)cccc1F)=N[C@H]2C` [Example 28, (4S)-7,8-dichloro-6-(2,6-difluorophenyl)-N-(2-methoxyethyl)-4-methyl-4H-[1,2,4]triazolo[1,5-a][1,4]benzodiazepine-2-carboxamide] showed an inhibitory constant (Ki) of 3.9 nM. Moreover, the Ki in assay [1] (setting [6]) is 3.92 nM. Also, in assay [2], the Ki was determined as 578 nM, the “γ2/γ1 Selectivity Ratio” value is listed as 147.4 and the LogSel came to 2.17. In assay [3], the “Efficacy (GABA)%” value came to 56% and the “Fold increase h-GABA-A α2β2γ1 oocyte @ 30-fold Ki” value stood at 1.56. Besides, the Ki in assay [4] came out at 1.08 nM.

Take `Cc1nc2n(n1)-c1ccc(C(F)(F)F)c(Cl)c1C(c1c(F)cccc1F)=N[C@H]2C` [Example 29, (4S)-7-chloro-6-(2,6-difluorophenyl)-2,4-dimethyl-8-(trifluoromethyl)-4H-[1,2,4]triazolo[1,5-a][1,4]benzodiazepine]: the Ki is 10 nM in assay [1] (setting [5]), 10 nM in assay [1] (setting [6]), 1090 nM in assay [2] and 0.69 nM in assay [4]. Further, the “γ2/γ1 Selectivity Ratio” value in assay [2] worked out at 109.1. The same compound registered a LogSel in assay [2] of 2.04. For the same compound, in assay [3], the “Efficacy (GABA)%” value turned out to be 80%. The “Fold increase h-GABA-A α2β2γ1 oocyte @ 30-fold Ki” value in assay [3] amounted to 1.80.

In turn, `C[C@@H]1N=C(c2c(F)cccc2F)c2c(ccc(Cl)c2Cl)-n2nc(C(=O)NCCF)nc21` [Example 30, (4S)-7,8-dichloro-6-(2,6-difluorophenyl)-N-(2-fluoroethyl)-4-methyl-4H-[1,2,4]triazolo[1,5-a][1,4]benzodiazepine-2-carboxamide] returned a Ki in assay [1] (setting [5]) of 7.2 nM. The same compound had a Ki in assay [1] (setting [6]) of 7.21 nM. Moreover, in assay [2], the affinity corresponds to a Ki of 660 nM, the “γ2/γ1 Selectivity Ratio” value is reported as 91.5 and the LogSel stood at 1.96. For the same compound, in assay [3], the “Efficacy (GABA)%” value was found to be 78% and the “Fold increase h-GABA-A α2β2γ1 oocyte @ 30-fold Ki” value was determined as 1.78. Also, affinity in assay [4] was put at a Ki of 1.39 nM.

Regarding `C[C@@H]1N=C(c2c(F)cccc2F)c2c(ccc(Cl)c2Cl)-n2nc(C(=O)N3CC(OC(F)F)C3)nc21` [Example 31, [(4S)-7,8-dichloro-6-(2,6-difluorophenyl)-4-methyl-4H-[1,2,4]triazolo[1,5-a][1,4]benzodiazepin-2-yl]-[3-(difluoromethoxy)azetidin-1-yl]methanone], the Ki in assay [1] (setting [5]) was found to be 17 nM; in assay [1] (setting [6]) it was 17 nM; in assay [2], 565 nM; in assay [4], 1.33 nM. The “γ2/γ1 Selectivity Ratio” value in assay [2] amounted to 33.2. The LogSel in assay [2] stood at 1.52. Also, the “Efficacy (GABA)%” value in assay [3] is 66%. For the same compound, in assay [3], the “Fold increase h-GABA-A α2β2γ1 oocyte @ 30-fold Ki” value worked out at 1.66.

Take `Cc1nc2n(n1)-c1ccc(Cl)c(Cl)c1C(c1c(F)cccc1F)=NC2` [Example 32, 7,8-dichloro-6-(2,6-difluorophenyl)-2-methyl-4H-[1,2,4]triazolo[1,5-a][1,4]benzodiazepine]: in assay [1] (setting [5]), affinity was put at a Ki of 2.4 nM. Moreover, affinity in assay [1] (setting [6]) was put at a Ki of 2.44 nM. In assay [2], the Ki worked out at 163 nM, the “γ2/γ1 Selectivity Ratio” value is reported as 67.1 and the LogSel came to 1.83. For the same compound, in assay [3], the “Efficacy (GABA)%” value was 26% and the “Fold increase h-GABA-A α2β2γ1 oocyte @ 30-fold Ki” value is 1.26. In assay [4], this compound came in with a Ki of 0.6 nM.

As for `Fc1cccc(F)c1C1=NCc2nc(C(F)F)nn2-c2ccc(Cl)c(Cl)c21` [Example 33, 7,8-dichloro-2-(difluoromethyl)-6-(2,6-difluorophenyl)-4H-[1,2,4]triazolo[1,5-a][1,4]benzodiazepine], affinity in assay [1] (setting [5]) was put at a Ki of 10.8 nM. In assay [1] (setting [6]), this compound displayed a Ki of 10.8 nM. In assay [2], the Ki is 659 nM, the “γ2/γ1 Selectivity Ratio” value was determined as 61.2 and the LogSel came to 1.79. In addition, in assay [3], the “Efficacy (GABA)%” value is 56% and the “Fold increase h-GABA-A α2β2γ1 oocyte @ 30-fold Ki” value was 1.56. This compound gave a Ki in assay [4] of 0.69 nM.

Compound `[2H]C([2H])([2H])NC(=O)c1nc2n(n1)-c1ccc(C(F)(F)F)c(Cl)c1C(c1c(F)cccc1F)=N[C@H]2C` [Example 34, (4S)-7-chloro-6-(2,6-difluorophenyl)-4-methyl-N-(trideuteriomethyl)-8-(trifluoromethyl)-4H-[1,2,4]triazolo[1,5-a][1,4]benzodiazepine-2-carboxamide] displayed a Ki in assay [1] (setting [5]) of 14.3 nM. The compound also showed an inhibitory constant (Ki) in assay [1] (setting [6]) of 14.3 nM. Besides, in assay [2], the Ki is 2180 nM, the “γ2/γ1 Selectivity Ratio” value was determined as 152.4 and the LogSel is 2.18. In assay [3], the “Efficacy (GABA)%” value was 71% and the “Fold increase h-GABA-A α2β2γ1 oocyte @ 30-fold Ki” value was determined as 1.71. Moreover, the Ki in assay [4] was determined as 2.11 nM.

(Values after patent US12365687B2 (Hoffmann-La Roche Inc., priority 2021, dated 2025).)
